This experiment deals with GLP-1R (Homo sapiens, UniProt P43220). Put plainly: GLP-1R agonist cAMP stimulation assay (HTRF cAMP). Particulars: HEK293 cell line expressing GLP-1 target; HTRF cAMP agonist mode, 30 min at RT. The format is cell-based. An outline of the steps:
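GLP-1R-expressing cells were stimulated with 10-point, 3-fold compound dilutions for 30 min at RT; HTRF cAMP detection reagents were then added for 60 min and the 665/615 ratio read. Ratios were converted to cAMP via a standard curve and % activity scaled between DMSO and top-concentration GLP-1(7-37) reference wells.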

Usually EC50 stands for the concentration that produces a half-maximal response. Read a high EC50 as a need for much substance.

Chain of GLP-1R (P43220 24-463): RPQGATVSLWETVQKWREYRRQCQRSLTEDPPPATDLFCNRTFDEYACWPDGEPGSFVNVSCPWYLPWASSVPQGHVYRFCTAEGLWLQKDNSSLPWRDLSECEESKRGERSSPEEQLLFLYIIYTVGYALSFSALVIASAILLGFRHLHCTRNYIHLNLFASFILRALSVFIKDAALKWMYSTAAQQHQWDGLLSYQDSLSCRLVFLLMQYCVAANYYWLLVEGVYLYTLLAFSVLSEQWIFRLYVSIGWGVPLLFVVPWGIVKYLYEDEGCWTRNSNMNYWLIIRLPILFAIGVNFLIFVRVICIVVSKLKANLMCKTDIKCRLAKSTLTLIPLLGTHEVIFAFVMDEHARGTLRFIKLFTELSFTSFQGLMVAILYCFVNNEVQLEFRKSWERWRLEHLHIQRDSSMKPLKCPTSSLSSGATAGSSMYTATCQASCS

Take `Cc1n[nH]c2ccc(NC(=O)c3ccc4c(c3)nc(CN3CC=C(c5cccc(OCc6ccc(C#N)c7ccccc67)n5)CC3)n4C[C@@H]3CCO3)cc12` [Compound 366]: the EC50 came out at 5.97 nM.

`O=C(Nc1ccc2[nH]c(=O)cnc2c1)c1ccc2c(c1)nc(CN1CCC(c3cccc(OCc4ccc(Cl)cc4F)n3)CC1)n2C[C@@H]1CCO1` [Compound 84] gave a half-maximal effective concentration (EC50) of 17.9 nM.

Take `CC1(c2ccc(Cl)cc2F)Oc2cccc(C3CCN(Cc4nc5cc(C(=O)Nc6ccc7[nH]nc(C(F)(F)F)c7c6)ccc5n4CC4CCO4)CC3)c2O1` (stereo not shown) [Compound 333]: the EC50 amounted to 2.19 nM.

`COCCn1c(CN2CCC(c3cccc(OCc4ccc(Cl)cc4F)n3)CC2)nc2cc(C(=O)NCCCc3ccc(OC)cc3)ccc21` [Compound 20] showed an EC50 of 3240 nM.

`O=C(Nc1ccc2[nH]ncc2c1)c1ccc2c(c1)nc(CN1CC=C(c3cccc(OCc4ccc(Cl)cc4F)n3)CC1)n2C[C@@H]1CCO1` [Compound 141] returned a 50% effective concentration (EC50) of 3.29 nM.

In turn, `Cc1n[nH]c2c(C)cc(C(=O)Nc3ccc4c(c3)nc(Cc3ccc(-c5cccc6c5OC(C)(c5ccc(C#N)cc5F)O6)cc3F)n4CC3CCO3)cc12` (stereo not shown) [Compound 317] registered a half-maximal effective concentration (EC50) of 0.32 nM.

Consider `Cc1n[nH]c2c(Cl)cc(C(=O)Nc3ccc4c(c3)nc(C3CC35CCN(c3cccc(OCc6ccc(Cl)cc6F)n3)CC5)n4CC3CCO3)cc12` (stereo not shown) [Compound 248], for which the EC50 amounted to 1.28 nM.

Regarding `Cc1n[nH]c2ccc(NC(=O)c3ccc4c(c3)nc(CN3CC=C(c5cccc(OCc6ccc(Cl)cc6F)n5)CC3)n4C[C@@H]3CCO3)nc12` [Compound 191], the EC50 stood at 3.69 nM.

The compound `O=C(Nc1ccc2[nH]ncc2c1)c1ccc2c(c1)nc(CN1CCC(c3cccc(OCc4ccc(Cl)cc4F)n3)CC1)n2C[C@@H]1CCO1` [Compound 87] registered an EC50 of 10.1 nM.

`Cc1n[nH]c2c(F)cc(C(=O)Nc3ccc4nc(CN5CC=C(c6cccc(OCc7ccc(Cl)cc7F)n6)CC5)n(CC5CCO5)c4c3)cc12` (stereo not shown) [Compound 277] gave an EC50 of 0.76 nM.

The compound `Cc1cc(NC(=O)c2ccc3c(c2)nc(CN2CCC(c4cccc(OCc5cc(F)c(C#N)s5)n4)CC2)n3C[C@@H]2CCO2)cc2c(C(F)(F)F)n[nH]c12` [Compound 377] registered an EC50 of 3.41 nM.

`NC(=O)C[C@H](NC(=O)c1ccc2c(c1)nc(CN1CCC(c3cccc(OCc4ccc(Cl)cc4F)n3)CC1)n2CC1CCO1)C(=O)O` (stereo partly shown) [Compound 52] displayed a concentration giving a half-maximal response (EC50) of 12.8 nM.

Take `CCc1n[nH]c2ccc(NC(=O)c3ccc4c(c3)nc(CN3CC=C(c5cccc(OCc6ccc(C#N)cc6F)n5)CC3)n4C[C@@H]3CCO3)cc12` [Compound 186]: the midpoint of the response, the EC50, lay at 2.12 nM.

The compound `Cn1cc2cc(NC(=O)c3ccc4c(c3)nc(CN3CCC(c5cccc(OCc6ccc(Cl)cc6F)n5)CC3)n4C[C@@H]3CCO3)ccc2n1` [Compound 99] gave a 50% effective concentration (EC50) of 42.4 nM.

In turn, `Cc1n[nH]c2ncc(NC(=O)c3ccc4c(c3)nc(CN3CC=C(c5cccc(OCc6ccc(Cl)cc6F)n5)CC3)n4C[C@@H]3CCO3)nc12` [Compound 190] showed an EC50 of 9.27 nM.

Regarding `Fc1cc(Cl)ccc1COc1cccc(C2=CCN(Cc3nc4cc(-n5cnc(-c6ccn[nH]6)c5)ccc4n3C[C@@H]3CCO3)CC2)n1` [Compound 396], the EC50 is 146 nM.

In turn, `Cc1cc2c(C#N)ccc(COc3cccc(C4CCN(Cc5nc6cc(NC(=O)c7ccc8[nH]nc(C(F)(F)F)c8c7)ccc6n5C[C@@H]5CCO5)CC4)n3)c2o1` [Compound 371] gave a concentration giving a half-maximal response (EC50) of 3.19 nM.

`O=C(Nc1ccc2[nH]c(=O)[nH]c2n1)c1ccc2c(c1)nc(CN1CCC(c3cccc(OCc4ccc(Cl)cc4F)n3)CC1)n2C[C@@H]1CCO1` [Compound 93] yielded an EC50 of 29.8 nM.

`CCc1n[nH]c2ccc(C(=O)Nc3ccc4c(c3)nc(C3CC35CCN(c3cccc(OCc6ccc(Cl)cc6F)n3)CC5)n4CC3CCO3)cc12` (stereo not shown) [Compound 250] displayed a concentration for a half-maximal effect (EC50) of 1.49 nM.

`Cc1c(C#N)sc(COc2cccc(C3CCN(Cc4nc5cc(NC(=O)c6ccc7[nH]nc(C)c7c6)ccc5n4C[C@@H]4CCO4)CC3)n2)c1F` [Compound 373] returned an EC50 of 0.39 nM.

In turn, `Cc1n[nH]c2c(F)cc(NC(=O)c3ccc4c(c3)nc(CN3CC=C(c5cccc(OCc6ccc(C#N)cc6F)n5)CC3)n4C[C@@H]3CCO3)cc12` [Compound 177] registered a concentration for a half-maximal effect (EC50) of 0.23 nM.

Compound `Fc1cc(Cl)ccc1COc1cccc(C2=CCN(Cc3nc4cc(-c5nc(-c6c[nH]c(C(F)(F)F)n6)co5)ccc4n3C[C@@H]3CCO3)CC2)n1` [Compound 399] registered an EC50 greater than 10000 nM.

Compound `N#Cc1ccc(COc2cccc(C3CCN(Cc4nc5cc(C(=O)Nc6cc(F)c7c(c6)C6(CC6)C(=O)N7)ccc5n4C[C@@H]4CCO4)CC3)n2)c(F)c1` [Compound 125] returned an EC50 of 0.55 nM.

On to `Cc1n[nH]c2c(F)cc(NC(=O)c3ccc4c(c3)nc(CN3CC=C(c5cccc(OCc6cc(F)c(C#N)s6)n5)CC3)n4C[C@@H]3CCO3)cc12` [Compound 363], for which a half-maximal response (EC50) required 0.41 nM.

The compound `Cc1n[nH]c2c(F)cc(NC(=O)c3ccc4c(c3)nc(CN3CCC(c5cccc(OCc6cc(F)c(C#N)s6)n5)CC3)n4C[C@@H]3CCO3)cc12` [Compound 375] yielded an EC50 of 1.01 nM.

The compound `COCCn1c(CN2CCC(c3cccc(OCc4ccc(Cl)cc4F)n3)CC2)nc2cc(C(=O)NCc3cccc(O)c3)ccc21` [Compound 32] displayed an EC50 of 112 nM.

In turn, `COCCn1c(CN2CCC(c3cccc(OCc4ccc(Cl)cc4F)n3)CC2)nc2cc(C(=O)N[C@@H](C)c3ccc(O)cc3)ccc21` [Compound 40] showed a concentration giving a half-maximal response (EC50) of 36.5 nM.

Compound `O=C(NCC(=O)N1C2CCC(C2)[C@H]1C(=O)O)c1ccc2c(c1)nc(CN1CCC(c3cccc(OCc4ccc(Cl)cc4F)n3)CC1)n2C[C@@H]1CCO1` (stereo partly shown) [Compound 59] had a concentration giving a half-maximal response (EC50) of 7.2 nM.

`N#Cc1ccc(COc2cccc(C3CCN(Cc4nc5cc(C(=O)Nc6cc(F)c7[nH]ncc7c6)ccc5n4C[C@@H]4CCO4)CC3)n2)c(F)c1` [Compound 129]: the concentration for a half-maximal effect (EC50) worked out at 1.14 nM.

In turn, `O=C(Nc1ccn2nccc2c1)c1ccc2c(c1)nc(CN1CCC(c3cccc(OCc4ccc(Cl)cc4F)n3)CC1)n2CC1CCO1` (stereo not shown) [Compound 96] gave a half-maximal effective concentration (EC50) of 74.3 nM.

As to `Cc1cc2c(C#N)ccc(COc3cccc(C4CCN(Cc5nc6cc(NC(=O)c7cc(F)c8[nH]nc(C)c8c7)ccc6n5C[C@@H]5CCO5)CC4)n3)c2o1` [Compound 372], a half-maximal response (EC50) required 0.65 nM.

The compound `Cc1n[nH]c2c(Cl)cc(NC(=O)c3ccc4c(c3)nc(CN3CC=C(c5cccc6c5O[C@@](C)(c5ccc(Cl)cc5F)O6)C[C@@H]3C)n4CC3CCO3)cc12` (stereo partly shown) [Compound 329] displayed a half-maximal effective concentration (EC50) of 1.66 nM.

With `O=C(Nc1nc2[nH]cnc2o1)c1ccc2c(c1)nc(CN1CC=C(c3cccc(OCc4ccc(Cl)cc4F)n3)CC1)n2C[C@@H]1CCO1` [Compound 404], the midpoint of the response, the EC50, lay at 19.8 nM.

For the compound `COCCn1c(CN2CCC(c3cccc(OCc4ccc(Cl)cc4F)n3)CC2)nc2cc(C(=O)NCCc3nc4ccccc4[nH]3)ccc21` [Compound 22], the midpoint of the response, the EC50, lay at 1370 nM.

Take `Cc1n[nH]c2c(F)cc(C(=O)Nc3ccc4c(c3)nc(CN3CC=C(c5cccc6c5OC(C)(c5ccc(Cl)cc5F)O6)CC3)n4CC3CCO3)cc12` (stereo not shown) [Compound 304]: the EC50 turned out to be 0.18 nM.

Turning to `C=C(C)c1n[nH]c2ccc(C(=O)Nc3ccc4c(c3)nc(CN3CC=C(c5cccc6c5OC(C)(c5ccc(Cl)cc5F)O6)CC3)n4CC3CCO3)cc12` (stereo not shown) [Compound 315], the response was half-maximal at 1.03 nM (EC50).

Regarding `Cc1n[nH]c2cnc(NC(=O)c3ccc4c(c3)nc(CN3CC=C(c5cccc(OCc6ccc(Cl)cc6F)n5)CC3)n4C[C@@H]3CCO3)cc12` [Compound 192], the EC50 was 9.87 nM.

These data come from patent publication US20230271949A1, “GLP-1R MODULATING COMPOUNDS” (ASCLETIS BIOSCIENCE CO., LTD., priority 2022, published 2023).
